Data set [1] concerns the target T1, TMEM16A (Homo sapiens, UniProt Q5XXA6).
T1 sequence (Q5XXA6 1-986): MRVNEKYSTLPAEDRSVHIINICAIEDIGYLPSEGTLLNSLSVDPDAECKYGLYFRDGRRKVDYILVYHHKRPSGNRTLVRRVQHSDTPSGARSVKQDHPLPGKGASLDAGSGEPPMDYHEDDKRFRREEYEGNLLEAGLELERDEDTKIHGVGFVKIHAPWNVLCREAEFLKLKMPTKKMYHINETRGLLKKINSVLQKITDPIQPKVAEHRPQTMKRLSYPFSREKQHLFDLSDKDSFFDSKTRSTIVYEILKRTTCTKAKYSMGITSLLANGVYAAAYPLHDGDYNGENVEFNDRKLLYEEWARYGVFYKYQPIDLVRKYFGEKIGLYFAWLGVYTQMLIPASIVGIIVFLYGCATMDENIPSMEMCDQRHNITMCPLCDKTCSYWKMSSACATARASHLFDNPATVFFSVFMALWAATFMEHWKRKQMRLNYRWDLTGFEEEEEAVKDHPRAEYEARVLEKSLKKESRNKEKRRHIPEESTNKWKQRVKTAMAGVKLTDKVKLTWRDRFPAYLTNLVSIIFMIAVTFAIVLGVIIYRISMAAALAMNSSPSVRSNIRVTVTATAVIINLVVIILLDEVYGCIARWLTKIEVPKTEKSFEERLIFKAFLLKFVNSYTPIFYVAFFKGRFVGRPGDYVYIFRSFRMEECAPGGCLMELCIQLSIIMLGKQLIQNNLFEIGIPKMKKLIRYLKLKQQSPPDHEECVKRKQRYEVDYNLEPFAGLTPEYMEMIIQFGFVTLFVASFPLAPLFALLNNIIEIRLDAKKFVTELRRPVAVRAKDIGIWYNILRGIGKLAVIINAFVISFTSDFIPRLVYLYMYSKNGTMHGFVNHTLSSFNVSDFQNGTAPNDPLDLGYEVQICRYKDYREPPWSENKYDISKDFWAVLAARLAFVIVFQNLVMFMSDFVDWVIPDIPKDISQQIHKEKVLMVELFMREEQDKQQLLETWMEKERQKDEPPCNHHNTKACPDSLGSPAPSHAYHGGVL
The data set can be described thus: Short-circuit current assay in TMEM16A-expressing FRT cells. In kind it is cell-based. To be noted: Figure S2A.

Data set [2] has as its target T1, TMEM16A. The data set can be described thus: Patch clamp, inside-out membrane patches from TMEM16A-expressing FRT cells. In kind it is cell-based. A general note: Patch clamp records ionic current or voltage across a cell membrane.
The next data set has as its system mouse ileum. The data set can be described thus: Ex vivo intestinal contractility. To be noted: added to bath, concentration-dependent.
In the next data set the test system is cytoplasmic calcium. The data set can be described thus: Fluo-4 fluorescence measurement of ATP-stimulated cytoplasmic calcium elevation. In kind it is cell-based. The following applies: 1 μM.
Data set [3] is described as follows: Shelf stability as solid or DMSO stock. In kind it is physicochemical. The following applies: as a solid or in DMSO stock solution.

A value given as a limit tells only on which side of the number the result lay.

On to `Cc1ccccc1NC(=O)c1c(NC(=O)C(F)(F)Br)sc2c1CCCCC2` [Compound 10bm], for which the “ionomycin- and carbachol-activated chloride conductance” value on TMEM16A [1] is reported as “inhibited”. Besides, the “effect on TMEM16A membrane currents” value at TMEM16A [2] (250 nM by perfusion, inside-out patch, free Ca2+ 305 nM) is recorded as “rapid inhibition of membrane currents”. The “recovery of membrane currents after washout” value on TMEM16A [2] (after 250 nM, washout) was “fully recovered following washout”. In the data set on mouse ileum, the “spontaneous isometric contractions of ileum” value was “strongly inhibited”. Moreover, in the data set on cytoplasmic calcium, the “effect on ATP-stimulated cytoplasmic calcium” value is “not altered”. Besides, in data set [3], the long-term shelf stability was greater than 6 months.

Values taken from article PMC5516794 (Journal of medicinal chemistry, 2017).
